Values joined by “and” are separate entries in the source; they are usually repeats but may differ in a detail not shown here. Equal values may be shown once.
What was measured:
full length GRK5 = molecular target: T1, full length GRK5 (Homo sapiens, UniProt P34947); assay: GRK5 kinase activity assay, ADP Glo Kinase Assay technology (Promega); type: biochemical; details: primary screen, final assay concentration 100 μM
T1 construct: 6/2 fold concentrated full length GRK5 (Millipore, #14-714) in reaction buffer; purchased Millipore 14-714
How it was run: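 Casein (10 μM) phosphorylation with 100 μM ATP in 20 mM MES pH 6.0, 1 mM DTT, 10 mM MgCl2, 0.01% Tween20, 120 min at room temperature; ADP quantified by ADP-Glo luminescence.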

[1] = system: beta-TC6 insulinoma cells; assay: Insulin release by beta-TC6 cells, rat/mouse insulin ELISA, high glucose; type: cell-based
C2C12 cells = assay: 2-NBDG glucose uptake in C2C12 cells (flow cytometry); type: cell-based, mouse; details: C2C12 cells; n = 3; FIG. 17
Method: (§1) 2-NBDG is a fluorescently-labeled deoxyglucose analog that is commonly used to directly monitor glucose uptake by living cells. For 2-NBDG detection, cells were cultured for 1 h together with 5 μM of a small molecule in glucose free media supplied with 100 μM 2-NBDG at 37° C. before collecting. Furthermore, as internal controls, samples of glucose free media, rFc4espectively glucose free media with test compound, were tested. Subsequently, cells were washed, trypsinized and harvested in ice-cold PBS before centrifuged at 1.6×10^3 rpm at 4° C. Cells were analyzed by flow cytometry (FACS Calibur, BD Bioscience, respectively a BD Accuri® C6 Flow Cytometer).
as §1, with “an inventive compound” for “a small molecule”, “media,” for “media, rFc4espectively”, “compound, respectively glucose free media supplied with 100 μM 2-NBDG” for “compound,”

3T3-L1 adipocytes = assay: 2-NBDG uptake in matured 3T3-L1 adipocytes; type: cell-based; details: relative to DMSO = 1; n = 2
Text: (§2) Inhibition of GRK5 led to an increased uptake of the fluorescent glucose analogue 2-NBDG in matured C2C12 myotubes (FIG. 20) and 3T3-L1 adipocytes (FIG. 21) for all five compounds (summarized in table 7). In line with C2C12 cells, the matured myotubes display an increase 2-NBDG uptake after inhibition of GRK5 by compounds 1-5.

matured C2C12 myotubes = assay: 2-NBDG uptake in matured C2C12 myotubes; type: cell-based, mouse; details: relative to DMSO = 1; n = 2
Text: as §2

beta TC6 cells = assay: 2-NBDG uptake in beta TC6 cells; type: cell-based, mouse; details: n = 3, FIG. 18
3T3-L1 pre-adipocytes = assay: 2-NBDG uptake in 3T3-L1 pre-adipocytes; type: cell-based; details: 3T3-L1 pre-adipocytes; n = 3; FIG. 19

T1 sequence (P34947 whole entry): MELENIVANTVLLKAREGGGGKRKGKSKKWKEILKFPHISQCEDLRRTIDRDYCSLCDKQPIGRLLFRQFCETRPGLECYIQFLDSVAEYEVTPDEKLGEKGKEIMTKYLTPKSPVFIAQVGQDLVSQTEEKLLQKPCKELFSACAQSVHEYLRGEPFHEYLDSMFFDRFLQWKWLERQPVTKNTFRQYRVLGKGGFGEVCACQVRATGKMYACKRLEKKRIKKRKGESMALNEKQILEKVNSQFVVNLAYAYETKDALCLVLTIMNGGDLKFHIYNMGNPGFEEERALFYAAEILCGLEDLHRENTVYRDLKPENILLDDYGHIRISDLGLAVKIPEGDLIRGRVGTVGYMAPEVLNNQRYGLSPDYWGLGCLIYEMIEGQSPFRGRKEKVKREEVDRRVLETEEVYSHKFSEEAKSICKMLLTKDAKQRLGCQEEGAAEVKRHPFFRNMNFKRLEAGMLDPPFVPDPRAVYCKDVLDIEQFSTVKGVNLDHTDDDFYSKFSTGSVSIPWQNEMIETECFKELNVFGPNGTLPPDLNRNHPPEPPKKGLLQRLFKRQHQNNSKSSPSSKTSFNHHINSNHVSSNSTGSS

Nc1cccc(-c2cc3cnc(Nc4cccnc4)cc3[nH]2)c1 [C2]
Inhibition of Grk5 [%] (full length GRK5): 60.0% | Insulin release (average, relative to DMSO = 1) ([1]; beta-TC6, 5 μM): 2.58±0.94 and 2.58 | Insulin release (average, relative to DMSO = 1) ([1]; beta-TC6, 10 μM): 2.01±0.19 and 2.01 | 2-NBDG glucose uptake, Ratio (average, DMSO = 1) (C2C12 cells): 2.127 | 2-NBDG uptake Ratio, 3T3-L1 adipocytes matured (3T3-L1 adipocytes): 2.234 | 2-NBDG uptake Ratio, C2C12 myotubes matured (matured C2C12 myotubes): 2.383 | 2-NBDG glucose uptake, Ratio (average, DMSO = 1) (beta TC6 cells): 1.529 | 2-NBDG glucose uptake, Ratio (average, DMSO = 1) (3T3-L1 pre-adipocytes): 1.111

— patent US9458463B2, “Method for treatment of diabetes by a small molecule inhibitor for GRK5” (MAX-PLANCK-GESELLSCHAFT ZUR FÖRDERUNG DER WISSENSCHAFTEN …, priority 2010, dated 2016)
